Columns and labels:
all three cell lines = experiment: MTS metabolic activity in all three cell lines; format: cell-based, human; conditions: 200 μM
Description: The viability of Calu-3 cells was determined by a chromogenic MTS method based on the measuring of mitochondrial respiration, assessed by the reduction of 3-(4,5-dimethylthiazol-2-yl)-5-(3-carboxymethoxyphenyl)-2-(4-sulfophenyl)-2H-tetrazolium to formazan. Calu-3 cells were cultured in a 96-well plate (CellTiter 96® Aqueous, Promega) at a density of 10^4 cells per well and incubated at 37° C., 5% CO2 for 24 hours. After 24 hours, the medium was replaced with 100 μl of test compounds dissolved in HBSS and then cells were incubated for 6 hours. HBSS and Triton X-100 (0.1% v/v in HBSS) were used as the negative and positive controls respectively. Bathing solutions were then aspirated and cells washed with PBS. Then culture medium (100 μl at 37° C.) plus MTS reagent (20 μl) were added into each well and cells were incubated for 2 hours. Absorbance at 492 was measured using a Dynex absorbance microplate reader (Dynex Technologies, USA) and converted into a percentage metabolic rate.
No significant reduction in cell metabolic activity was observed. Cell viability of >75% was retained in all cases.

Calu-3 cell layer = experiment: Delivery of siRNA across Calu-3 cell layer (Transwell); format: cell-based, human; conditions: 200 μM
Description: FIG. 10: Delivery of siRNA (19 bases) across Calu-3 cell layer is enhanced in the presence of 30C12 HSL (200 μM) assessed as recovered fraction from the basolateral chamber of a Transwell.

## CCCCCCCCCC(=O)CC(=O)N[C@H]1CCOC1=O [Agent 3OC12-HSL, N-(3-oxododecanoyl) homoserine lactone]
All three cell lines
  metabolic activity compared to the negative control: did not change the metabolic activity
Calu-3 cell layer
  delivery of siRNA (19 bases) across cell layer, recovered fraction from basolateral chamber: enhanced

Reference: patent publication US20250302816A1, “DISRUPTION OF EPITHELIAL BARRIERS FOR MOLECULAR DELIVERY ENHANCEMENT OR EXTRACTION OF EXTRACELLULAR FLUIDS” (The University of Nottingham, priority 2022, published 2025)
